Reference: ChEMBL document CHEMBL4118173, “Discovery of benzimidazole derivatives as orally active renin inhibitors: Optimization of 3,5-disubstituted piperidine to improve pharmacokinetic profile” (Bioorg Med Chem, 2018)
Activity calls are given as the source filed them. The rule behind the calls is not given here.

Tests used:
physchem = conditions: 1-octanol/aqueous buffer, pH 7.4
Description: 1-octanol/aqueous buffer partition coefficient, log D of the compound at pH 7.4 by UV-vis/HPLC method

Renin [1] = molecular target: T1, Renin (Homo sapiens, UniProt P00797)
T1 sequence (P00797 whole entry): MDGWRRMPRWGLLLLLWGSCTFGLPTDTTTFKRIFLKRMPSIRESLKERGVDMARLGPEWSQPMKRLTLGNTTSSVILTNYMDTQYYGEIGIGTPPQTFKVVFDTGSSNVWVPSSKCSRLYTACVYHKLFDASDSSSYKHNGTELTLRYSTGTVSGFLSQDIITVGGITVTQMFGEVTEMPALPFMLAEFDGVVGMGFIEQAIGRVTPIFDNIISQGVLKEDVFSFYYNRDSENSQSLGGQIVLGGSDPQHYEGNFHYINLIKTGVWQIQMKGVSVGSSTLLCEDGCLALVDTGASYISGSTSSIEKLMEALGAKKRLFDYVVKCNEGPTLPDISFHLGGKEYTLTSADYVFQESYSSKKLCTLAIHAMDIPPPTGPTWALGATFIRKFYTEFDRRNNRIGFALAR
Description: Inhibition of renin in human plasma by radioimmunoassay

Renin [2] = molecular target: T1, Renin; remark: listed apart in the source
Description: Inhibition of recombinant human renin using angiotensinogen as substrate pretreated for 10 mins followed by substrate addition measured after 30 mins in absence of human serum albumin by ELISA

Renin [3] = molecular target: T1, Renin; remark: listed apart in the source
Description: Inhibition of recombinant human renin using angiotensinogen as substrate pretreated for 10 mins followed by substrate addition measured after 30 mins in presence of human serum albumin by ELISA

in vitro = conditions: PAMPA, pH 7.4
Description: Permeability of the compound at pH 7.4 buffer after 3 hrs by PAMPA

in vivo [4] = conditions: rat, iv
Description: Clearance in rat at 0.1 mg/kg, iv or 1 mg/kg, po administered as cassette dose by LC-MS/MS analysis

in vivo [5] = conditions: rat, po, 1 mg/kg
in vivo [6] = conditions: rat, iv, 0.1 mg/kg
in vivo [7] = conditions: rat, po, 1 mg/kg; remark: listed apart in the source
Cynomolgus monkey [8] = conditions: Macaca fascicularis; Plasma; 5 to 15 mg/kg
Cynomolgus monkey [9] = conditions: Macaca fascicularis; Plasma; 15 mg/kg
[10] = Tmax in cynomolgus monkey at 0.1 mg/kg, iv or 1 mg/kg, po administered as cassette dose by LC-MS/MS analysis; type: ADME, organism-based, Macaca fascicularis; conditions: in vivo
[11] = AUC in cynomolgus monkey at 0.1 mg/kg, iv administered as cassette dose by LC-MS/MS analysis; type: ADME, organism-based, Macaca fascicularis; conditions: in vivo
[12] = AUC in cynomolgus monkey at 1 mg/kg, po administered as cassette dose by LC-MS/MS analysis; type: ADME, organism-based, Macaca fascicularis; conditions: in vivo
[13] = Cmax in cynomolgus monkey at 0.1 mg/kg, iv or 1 mg/kg, po administered as cassette dose by LC-MS/MS analysis; type: ADME, organism-based, Macaca fascicularis; conditions: in vivo
[14] = Oral bioavailability in cynomolgus monkey at 1 mg/kg administered as cassette dose by LC-MS/MS analysis; type: ADME, organism-based, Macaca fascicularis; conditions: in vivo
[15] = Clearance in cynomolgus monkey at 0.1 mg/kg, iv or 1 mg/kg, po administered as cassette dose by LC-MS/MS analysis; type: ADME, organism-based, Macaca fascicularis; conditions: in vivo
Rattus norvegicus = organism: Rattus norvegicus; conditions: in vivo, po, 1 mg/kg

Row | SMILES | logD (physchem) | IC50 (Renin [1]) | IC50 (Renin [2]) | IC50 (Renin [3]) | Papp at 3 h (in vitro) | clearance (in vivo [4]) | bioavailability (in vivo [5]) | AUC (in vivo [6]) | AUC (in vivo [7]) | inhibition (Cynomolgus monkey [8]) | inhibition (Cynomolgus monkey [9]) | Tmax [10] | AUC [11] | AUC [12] | Cmax [13] | bioavailability [14] | clearance [15] | AUC (Rattus norvegicus)
1 | CCn1c(C(=O)N(CC(C)C)[C@@H]2CNC[C@H](CO)C2)nc2ccccc21 | 1.73 | > 10 nM | 16 nM | 21 nM | 5.5 ×10⁻⁶ cm/s | – | – | – | – | – | – | – | – | – | – | – | – | –
2 | COCCCCc1c(C(=O)N(CC(C)C)[C@@H]2CNC[C@H](C(=O)N3CCOCC3)C2)nnn1-c1ccccc1 | 1.94 | 0.4 nM | 1 nM | 0.65 nM | 36.9 ×10⁻⁶ cm/s | 92.4 mL/min/kg | 1.9% | 18.4 ng·h/mL | 3.5 ng·h/mL | – | – | – | – | – | – | – | – | –
3 | COCCCCn1c(C(=O)N(CC(C)C)[C@@H]2CNC[C@H](C(=O)N3CCOCC3)C2)cnc1C(C)(C)C | 2.12 | – | 48 nM | 35 nM | – | – | – | – | – | – | – | – | – | – | – | – | – | –
4 | COCCCOc1cc(C[C@@H](C[C@H](N)[C@@H](O)C[C@H](C(=O)NCC(C)(C)C(N)=O)C(C)C)C(C)C)ccc1OC | – | – | – | – | – | – | – | – | – | Active | Active | 3.33 h | 501 ng·h/mL | 25.9 ng·h/mL | 3.5 ng/mL | 0.6% | 3.37 mL/min/kg | –
5 | COCCCCc1c(C(=O)N(CC(C)C)[C@@H]2CNC[C@H](C(=O)N3CCOCC3)C2)nc2ccccn12 | 1.54 | 1.1 nM | 1.6 nM | 2.1 nM | 6.3 ×10⁻⁶ cm/s | 39 mL/min/kg | 2.2% | 43.5 ng·h/mL | 9.5 ng·h/mL | – | – | – | – | – | – | – | – | –
6 | COCCCCc1c(C(=O)N(CC(C)C)[C@@H]2CNC[C@H](C(=O)N3CCOCC3)C2)cnn1-c1ccccc1 | 1.78 | 1.3 nM | 1.1 nM | 1.2 nM | 7.8 ×10⁻⁶ cm/s | 80.4 mL/min/kg | 0.3% | 20.8 ng·h/mL | 0.7 ng·h/mL | – | – | – | – | – | – | – | – | –
7 | COCCCCc1c(C(=O)N(CC(C)C)[C@@H]2CNC[C@H](C(=O)N3CCOCC3)C2)ncn1-c1ccccc1 | 1.84 | 1.2 nM | 0.83 nM | 1.1 nM | 7.8 ×10⁻⁶ cm/s | 127 mL/min/kg | < 1% | 13.3 ng·h/mL | – | – | – | – | – | – | – | – | – | –
8 | COCCCCn1c(C(=O)N(CC(C)C)[C@@H]2CNC[C@H](C(C)(C)O)C2)nc2ccccc21 | 1.98 | 2.6 nM | 0.72 nM | 1.5 nM | 20.2 ×10⁻⁶ cm/s | – | – | – | – | – | – | – | – | – | – | – | – | –
9 | COCCCCc1c(C(=O)N(CC(C)C)[C@@H]2CNC[C@H](C(=O)N3CCOCC3)C2)nc2n1CCCC2 | – | 3.3 nM | 2.2 nM | 2.7 nM | – | – | – | – | – | – | – | – | – | – | – | – | – | –
10 | COCCCCn1c(C(=O)N(CC(C)C)[C@@H]2CNC[C@H](C(=O)N3CCOCC3)C2)cnc1-c1ccccc1 | 2.03 | 2.8 nM | 4.4 nM | 3.3 nM | 7.2 ×10⁻⁶ cm/s | 96.7 mL/min/kg | < 1% | 17.6 ng·h/mL | – | – | – | – | – | – | – | – | – | –
11 | CCCCCNc1nc(C(C)(C)C)ncc1C(=O)N(CC(C)C)[C@@H]1CNC[C@H](C(=O)N2CCOCC2)C1 | 4.45 | 5.4 nM | 0.2 nM | 0.64 nM | 25.2 ×10⁻⁶ cm/s | 62.4 mL/min/kg | < 1% | 27.3 ng·h/mL | – | – | – | – | – | – | – | – | – | –
12 | COCCCCn1c(C(=O)N(CC(C)C)[C@H]2CCCNC2)nc2ccccc21 | 2 | 9.1 nM | 0.9 nM | 1.6 nM | 32.4 ×10⁻⁶ cm/s | 33 mL/min/kg | 12% | 52.1 ng·h/mL | 59.7 ng·h/mL | – | – | – | – | – | – | – | – | –
13 | COCCCCn1c(C(=O)N(CC(C)C)[C@@H]2CNC[C@H](C(=O)N3CCOCC3)C2)ccc1-c1ccccc1 | 3.08 | 3.4 nM | 0.16 nM | 1.4 nM | 21.7 ×10⁻⁶ cm/s | 49.5 mL/min/kg | 5.4% | 34.6 ng·h/mL | 18.5 ng·h/mL | – | – | – | – | – | – | – | – | –
14 | COCCCOc1nc(C(C)(C)C)ncc1C(=O)N(CC(C)C)[C@@H]1CNC[C@H](C(=O)N2CCOCC2)C1 | 2.81 | – | > 100 nM | > 100 nM | 27.2 ×10⁻⁶ cm/s | – | – | – | – | – | – | – | – | – | – | – | – | –
15 | CCCCCCc1nc(C(C)(C)C)ncc1C(=O)N(CC(C)C)[C@@H]1CNC[C@H](C(=O)N2CCOCC2)C1 | 4.77 | – | – | – | 43.5 ×10⁻⁶ cm/s | – | – | 42 ng·h/mL | – | – | – | – | – | – | – | – | – | 20.9 ng·h/mL
16 | CCn1c(C(=O)N(CC(C)C)[C@@H]2CNC[C@H](C(=O)N3CCOCC3)C2)nc2ccccc21 | 1.79 | 1.3 nM | 0.66 nM | 0.89 nM | 24.2 ×10⁻⁶ cm/s | 38.5 mL/min/kg | 14% | 43.4 ng·h/mL | 58.9 ng·h/mL | – | – | – | – | – | – | – | – | –
17 | COCCCCn1nc(-c2ccccc2)cc1C(=O)N(CC(C)C)[C@@H]1CNC[C@H](C(=O)N2CCOCC2)C1 | 2.68 | – | > 100 nM | > 100 nM | – | – | – | – | – | – | – | – | – | – | – | – | – | –
18 | COCCCCn1nc(C(C)(C)C)cc1C(=O)N(CC(C)C)[C@@H]1CNC[C@H](C(=O)N2CCOCC2)C1 | 2.73 | – | 2 nM | 3.6 nM | – | – | – | – | – | – | – | – | – | – | – | – | – | –
19 | COCCCCn1c(C(=O)N(CC(C)C)[C@@H]2CNC[C@H](C(=O)N3CCOCC3)C2)nnc1-c1ccccc1 | 1.79 | 1.2 nM | 1.4 nM | 1.8 nM | 11.6 ×10⁻⁶ cm/s | 112 mL/min/kg | < 1% | 15.3 ng·h/mL | – | – | – | – | – | – | – | – | – | –
20 | CC(C)CN(C(=O)c1nc2ccccc2[nH]1)[C@@H]1CNC[C@H](C(=O)N2CCOCC2)C1 | 1.74 | 4 nM | 0.76 nM | 0.59 nM | 6 ×10⁻⁶ cm/s | 34.2 mL/min/kg | 8.2% | 50.7 ng·h/mL | 41.7 ng·h/mL | – | – | – | – | – | – | – | – | –
21 | COCCCCn1c(C(=O)N(CC(C)C)[C@@H]2CNC[C@H](CO)C2)nc2ccccc21 | 1.77 | 1.5 nM | 0.28 nM | 0.32 nM | 8.2 ×10⁻⁶ cm/s | 15.5 mL/min/kg | 9.6% | 108 ng·h/mL | 103 ng·h/mL | – | – | – | – | – | – | – | – | –
22 | CC(C)CN(C(=O)c1nc2ccccc2n1C)[C@@H]1CNC[C@H](C(=O)N2CCOCC2)C1 | 1.71 | 2.9 nM | 0.63 nM | 0.66 nM | 27.4 ×10⁻⁶ cm/s | 38.9 mL/min/kg | 17% | 43.9 ng·h/mL | 74.2 ng·h/mL | – | – | – | – | – | – | – | – | –
